Where a SMILES comes first, the peptide text is derived from it. [ ]: non-standard residue; d: D form. The star is where a group is joined. FITC = O=C1OC2(c3ccc(O)cc3Oc3cc(O)ccc32)c2ccc(NC(=S)*)cc21; pS = N[C@@H](COP(=O)(O)O)C(=O)O
Assays:
[1] = target: T1, KPNA4 ARM (Homo sapiens, UniProt O00629); test: FP competition, KPNA4 ARM major pocket (FITC-Myc probe); format: binding
T1 construct: O00629; KPNA4; Arm; 68; 487; pETM33/pETM41; Genescript; made in house; host or cells: bacteria (E. coli BL21(DE3) gold is named only for the phage-selection preparations)
T1 sequence (O00629 68-487): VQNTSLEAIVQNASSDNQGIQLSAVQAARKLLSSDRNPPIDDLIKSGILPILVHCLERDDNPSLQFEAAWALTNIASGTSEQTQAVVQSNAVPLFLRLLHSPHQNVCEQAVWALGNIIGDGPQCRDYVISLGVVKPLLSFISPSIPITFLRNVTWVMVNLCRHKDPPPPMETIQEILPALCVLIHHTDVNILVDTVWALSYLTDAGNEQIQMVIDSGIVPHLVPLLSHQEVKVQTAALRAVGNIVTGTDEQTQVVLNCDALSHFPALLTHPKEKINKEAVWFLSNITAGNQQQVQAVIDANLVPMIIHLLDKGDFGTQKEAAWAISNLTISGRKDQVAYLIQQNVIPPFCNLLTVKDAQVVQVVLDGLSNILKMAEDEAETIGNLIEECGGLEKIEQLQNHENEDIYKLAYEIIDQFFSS
Text: Like other importins, KPNA4 has two distinct NLS‐binding pockets on the surface of an armadillo (ARM) repeat fold (major pocket, ARM 2–4; minor pocket, ARM 6–8; Fig 5B) (Smith et al, [2018]). Bipartite NLSs are usually 17–19 amino acids long and engage both pockets. Monopartite NLSs are short basic stretches, divided into five classes (Kosugi et al, [2009]): class I KR[KR]R or K[KR]RK, class II [PR]xxKR[^DE][KR] (where ^ indicates “not”), class III KRx[WFY]xxAF, class IV [RP]xxKR[KR][^DE], and class V LGKR[KR][WFY]. The class I and class II motifs preferentially interact with the major pocket (Kosugi et al, [2009]). In contrast, class III and class IV NLSs preferentially bind to the minor pocket. Using KPNA4 as a bait against the HD2 P8 library we identified 33 peptides found in 32 proteins. Of the 26 proteins for which information was available, 22 proteins were annotated as having nuclear or nucleolar localization in the UniProt database. To gain additional information we combined the data generated for KPNA4 by screening against the complete P8 HD2 library, with the results generated using two relevant sublibraries (the cytoplasmic and nuclear, and nuclear sublibraries) resulting in a set of 92 peptides containing NLS‐like sequences found in 76 proteins. Using these peptides we could generate consensus motifs that matched four of the previously reported NLS classes (Fig 5A; class I‐IV). […] Three peptides bound only to the major pocket. Eight peptides with class III motif and one KRxH‐containing peptide only bound to the minor pocket. Five peptides outcompeted both probe peptides, which may be explained by the amino acid sequence matching both class II and class III motifs (e.g., 1135‐ PSPKRKL ‐1139 in ZNF532; Fig 5), and possibly by cross specificity of the two binding pockets.

[2] = tested on: HEK293 cells; test: GFP-based NLS sensor (tri-GFP) cellular localization; format: cell-based, human; settings: HEK293 cells transiently transfected, fixed 36 h after transfection, epifluorescence microscopy, DAPI; n = 3 independent experiments
Text: For the cell‐based NLS experiment, a pEGFP‐C1 vector was modified to contain two additional eGFP genes spaced by a linker region on the 3′ end of the vector's multiple cloning site (Appendix Fig S8). The modified vector is here called a “tri‐GFP vector”. DNA strands for tandem peptides to be tested for NLS function were constructed by PCR using overlapping primers that coded for the peptide sequences and also contained overlapping regions for the MCS in the tri‐GFP vector. The PCR products were then cloned into the tri‐GFP vector using Gibson Assembly® (New England Biolabs) following the manufacturer's recommendations. Obtained clones were verified by Sanger sequencing.
HEK293 cells were obtained from Sigma (Cat. 85120602) and cultured using DMEM with GlutaMAX™ Supplement (Gibco™) supplemented with 10% FBS (Gibco™) and Non‐Essential Amino Acids Solution (NEAA, Gibco™). Cultures were maintained at 37°C with 5% CO2 in humidified chambers and were routinely checked for mycoplasma contamination. For NLS experiments, cells were transfected using FuGENE® HD (Promega) according to manufacturer's instructions and using highly purified DNA samples. • Cells were then grown in eight‐well chamber slides. […]

[3] = target: T2, SFN 14-3-3 (Homo sapiens, UniProt P31947); test: FP saturation (direct binding of FITC probe), SFN 14-3-3; parameters: P31947; SFN; 14-3-3; 236; pHH0103; Sidhu Lab (PMID: 33438817); made in house; host or cells: bacteria (E. coli BL21(DE3) gold is named only for the phage-selection preparations); settings: direct binding of FITC-labeled phospho-RAF1 probe
T2 sequence (P31947 1-236): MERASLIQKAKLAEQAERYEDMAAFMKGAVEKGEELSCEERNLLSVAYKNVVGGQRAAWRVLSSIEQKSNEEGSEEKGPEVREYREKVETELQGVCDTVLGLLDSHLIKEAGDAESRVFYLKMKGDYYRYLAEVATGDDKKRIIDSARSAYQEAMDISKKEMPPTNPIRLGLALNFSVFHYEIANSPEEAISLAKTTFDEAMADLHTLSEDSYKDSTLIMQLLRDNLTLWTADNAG
Procedure: The protein coding regions (Dataset EV2) were subcloned using the EcoRI and NcoRI restriction site into in pETM41 (EMBL) for the expression of 6‐His‐MBP‐tagged proteins or in the pETM33 (EMBL) vector. • Protein expression was induced at OD600 0.8 with 1 mM IPTG, and allowed to proceed at 18°C for 20 h. • The bacteria were harvested and lysed under the same conditions as described above. • The supernatant was batch purified using the IMAC technique with Ni Sepharose 6 Fast Flow (Cytiva). • After 1 h incubation with the gel slurry, the gel was transferred into a column. • The beads were washed with wash buffer (20 mM NaPO4, 0.5 M NaCl, 30 mM imidazole pH 7.4) and eluted with elution buffer (20 mM NaPO4 0.5 M, NaCl 500 mM imidazole, pH 7.4). The proteins were further purified as follows: • 14‐3‐3 SFN: The protein was not eluted from the IMAC column. Instead, after washing unbound protein away, His‐tagged HRV3C protease was added and incubated for 16 h in 20 mM NaPO4, 0.5 M NaCl, pH 7.4. The cleaved protein was eluted with the same buffer. […]
Peptides were obtained from GeneCust (France) at > 95% purity. […] Data were analyzed with GraphPad Prism version 9.0.0 for MacOS (GraphPad Software, San Diego, California USA, www.graphpad.com). […]

[4] = target: T3, TLN1 PTB (Homo sapiens, UniProt Q9Y490); test: FP saturation (direct binding of FITC probe), TLN1 PTB; settings: Fig 3C; direct binding of FITC-labeled probe
T3 construct: Q9Y490; TLN1; PTB; 309; pHH0103; Sidhu Lab (PMID: 33438817); made in house; host or cells: bacteria (E. coli BL21(DE3) gold is named only for the phage-selection preparations)
T3 sequence (Q9Y490 309-401): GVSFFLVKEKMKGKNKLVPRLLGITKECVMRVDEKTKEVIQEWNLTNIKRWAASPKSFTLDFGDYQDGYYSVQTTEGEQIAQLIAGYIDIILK

[5] = target: T4, KPNB1 HEAT (Homo sapiens, UniProt Q14974); test: FP saturation (direct binding of FITC probe), KPNB1 HEAT; settings: direct binding of FITC-labeled probe, 10 nM in master mix, 50 mM KPO4 pH 7.5
T4 construct: Q14974; KPNB1; HEAT; 485; pETM41; Genescript; 6-His-MBP (from vector pETM41) (cleaved yes); made in house; host or cells: bacteria (E. coli BL21(DE3) gold is named only for the phage-selection preparations)
T4 sequence (Q14974 1-485): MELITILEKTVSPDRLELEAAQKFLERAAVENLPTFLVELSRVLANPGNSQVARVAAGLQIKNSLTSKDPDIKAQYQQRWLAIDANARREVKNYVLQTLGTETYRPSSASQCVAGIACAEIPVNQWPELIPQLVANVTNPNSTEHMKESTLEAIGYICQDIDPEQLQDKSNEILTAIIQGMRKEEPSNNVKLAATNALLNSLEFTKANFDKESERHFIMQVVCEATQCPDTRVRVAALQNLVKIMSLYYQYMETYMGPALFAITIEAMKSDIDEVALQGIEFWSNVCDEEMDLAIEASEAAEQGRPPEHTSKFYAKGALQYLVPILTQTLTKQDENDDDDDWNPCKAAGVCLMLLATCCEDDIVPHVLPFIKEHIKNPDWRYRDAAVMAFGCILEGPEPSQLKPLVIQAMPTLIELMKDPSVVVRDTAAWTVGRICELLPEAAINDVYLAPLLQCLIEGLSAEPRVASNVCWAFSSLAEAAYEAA

[6] = target: T2, SFN 14-3-3; test: FP competition, SFN 14-3-3
Procedure: Fluorescence polarization affinity measurements were carried out with an iD5 multidetection plate reader (Molecular Devices) using Corning assay 96‐well half area black Flat‐bottom Nonbinding surface plates (Corning, USA #3993). The settings were 485 nm excitation and 535 nm for emission at a reading height of 1.76 mm and total volume of 50 µl. Peptides were obtained from GeneCust (France) at > 95% purity. Unlabeled peptides were dissolved in 50 mM KPO4 or 50 mM NaPO4, pH 7.5. FITC‐labeled peptides were dissolved in dimethyl sulfoxide (DMSO). Protein for saturation experiments, or peptides for the displacement experiments, were arrayed in serial dilution in 50 mM KPO4 pH 7.5 in 25 µl, followed by addition of 25 µl of a master mix. For saturation binding experiments, the master mix contained 2 mM DTT and 10 nM FITC‐labeled peptide in 50 mM KPO4 pH 7.5 or 50 mM NaPO4 pH 7.5. For competition experiments, the master mix was supplemented with the protein of interest at a concentration of four times the K D value. Data were analyzed with GraphPad Prism version 9.0.0 for MacOS (GraphPad Software, San Diego, California USA, www.graphpad.com). […]

In the case of Ac-YKCKRQRQDQTLELVGL-NH2 [NKX2-5 Wt], the Ki [1] is reported as 6.8 µM and the “NLS function: localization of the GFP-based NLS sensor fused to the peptide” value [2] is reported as “nuclear localization”.

In the case of Ac-YKCRRQRQDQTLELVGL-NH2 [NKX2-5 K194R], the IC50 ([1]; FP competition with FITC-Myc320-328 probe for the major pocket, 50 mM KPO4 pH 7.5, n = 3 technical replicates) is reported as 98 µM, the “loss of affinity of KPNA4 binding, mutant versus wild-type” value ([1]; FP competition with FITC-Myc probe, K194R versus wild-type) is reported as 10 fold and the “NLS function: localization of the GFP-based NLS sensor fused to the peptide” value [2] is reported as “cytoplasmic localization”.

`CC(C)[C@H](NC(=O)[C@H](CC(N)=O)NC(=O)[C@@H]1CCCN1C(=O)[C@@H](NC(=O)[C@H](COP(=O)(O)O)NC(=O)[C@@H](NC(=O)[C@H](CO)NC(=O)[C@H](CCCNC(=N)N)NC(=O)[C@H](CCC(N)=O)NC(=S)Nc1ccc2c(c1)C(=O)OC21c2ccc(O)cc2Oc2cc(O)ccc21)[C@@H](C)O)[C@@H](C)O)C(=O)N[C@@H](Cc1c[nH]cn1)C(N)=O` [RAF_FITC] ({FITC}-QRST[pS]TPNVH-NH2) showed a Kd [3] of 524 µM.

For `CC(C)C[C@H](NC(=O)[C@@H]1CCCN1C(=O)[C@H](CO)NC(=O)[C@H](Cc1ccc(O)cc1)NC(=O)[C@@H](NC(=O)[C@H](Cc1c[nH]c2ccccc12)NC(=O)[C@H](CO)NC(=O)[C@H](CCCNC(=N)N)NC(=O)[C@H](CCC(=O)O)NC(=O)[C@H](CC(=O)O)NC(=O)[C@@H](NC(=O)[C@@H]1CCCN1C(=O)[C@H](Cc1ccccc1)NC(=S)Nc1ccc2c(c1)C(=O)OC21c2ccc(O)cc2Oc2cc(O)ccc21)[C@@H](C)O)C(C)C)C(=O)N[C@@H](Cc1c[nH]cn1)C(=O)N[C@@H](Cc1ccc(O)cc1)C(=O)N[C@@H](CO)C(N)=O` [PIP5K1C_FITC] ({FITC}-FPTDERSWVYSPLHYS-NH2), the Kd [4] was 0.15 ± 0.04 µM.

In the case of `CC(C)[C@H](NC(=O)[C@H](Cc1ccccc1)NC(=O)[C@@H](NC(=O)[C@H](C)NC(=O)[C@@H](NC(=S)Nc1ccc2c(c1)C(=O)OC21c2ccc(O)cc2Oc2cc(O)ccc21)C(C)C)[C@@H](C)O)C(=O)N[C@@H](Cc1ccccc1)C(=O)NCC(=O)N[C@@H](CCC(N)=O)C(=O)N[C@@H](CO)C(=O)N[C@@H](CO)C(N)=O` [NUP153_FITC] ({FITC}-VATFVFGQSS-NH2), the Kd [5] is reported as 106 µM.

Ac-NEPTTPSWLADIPPWVP-NH2 [MAP1A] gave an IC50 [6] of 1970 µM.

— publication PMC8769072, “Proteome‐scale mapping of binding sites in the unstructured regions of the human proteome” (Molecular Systems Biology, 2022)
